Test results taken from US10512630B2, “Compositions and methods for treating cancer” (The Regents Of The University Of California, priority 2015, dated 2019).

Assays:
[1] = tested on: MDA-MB-231 triple-negative breast cancer cells; test: Proliferation of MDA-MB-231 triple-negative breast cancer cells in vitro; type: cell-based, human; details: for Cell proliferation (% control) as a function of parthenolide analog dose (10 uM). / Cell proliferation (% control) as a function of parthenolide analog dose (50 uM).: MDA-MB-231 cells, data corresponds to FIG. 5; for Antitumor effects compared with dimethylamino-parthenolide (DMAPT): MDA-MB-231, doses 0-50 micromolar, most notable at 10 micromolar, FIG. 2
Method: (§1) FIG. 2: Parthenolides inhibit proliferation of MDAMB231 triple negative breast cancer cells. Parthenolide analogues JD211-JD216 were tested for antitumor activity using triple-negative breast cancer cells (MDA-MB-231) in vitro. Doses ranged from 0-50 micromolar and tumor cell proliferation was assessed using established methods. […] This was most notable at lower compound dose at 10 micromolar. These findings indicate that novel compounds such as JD213, JD214, JD215 and JD216 are more promising candidates for anticancer therapy then DMAPT because these cancers are more sensitive to compounds other than DMAPT.
as §1, with “Parthenolide” for “FIG. 2: Parthenolides inhibit proliferation of MDAMB231 triple negative breast cancer cells. Parthenolide”

[2] = tested on: human umbicical vein endothelial cells (HUVEC); test: Proliferation of human umbilical vein endothelial cells (HUVEC) in vitro; type: cell-based; details: dosed at 100-nM or at doses up to 10-uM (not shown); FIG. 6

| Compound | Cell proliferation (% control) as a function of parthenolide analog dose (10 uM). [1] [% control] | Cell proliferation (% control) as a function of parthenolide analog dose (50 uM). [1] [% control] | Suppression of MDA-MB-231 cell proliferation ([1]; 100-nM dose (0.1-uM) in vitro, compared to control (P<0.001), FIG. 6) | Antitumor effects compared with dimethylamino-parthenolide (DMAPT) [1] | Effect on proliferation of HUVEC [2] |
| --- | --- | --- | --- | --- | --- |
| C/C1=C\CC[C@@]2(C)O[C@H]2[C@H]2OC(=O)[C@@H](CNCC(=O)OCc3ccccc3)[C@@H]2CC1 [JD216, Benzyl (((3R,3aS,10bS,E)-6,9a-dimethyl-2-oxo-2,3,3a,4,5,8,9,9a,10a,10b-decahydrooxire-no[2′,3′:9,10]cyclodeca[1,2-b]furan-3-yl)methyl)glycinate] | 0 | 0 | effectively suppress | greater than that observed with dimethylamino-parthenolide (DMAPT) | does not significantly alter |
| C/C1=C\CC[C@@]2(C)O[C@H]2[C@H]2OC(=O)[C@@H](CNCC(=O)O)[C@@H]2CC1 [JD211, (((3R,3aS,1bS,E)-6,9a-dimethyl-2-oxo-2,3,3a,4,5,8,9,9a,10a,10b-decahydrooxire-no[2′,3′:9,10]cyclodeca[1,2-b]furan-3-yl)methyl)glycine] | 106.0 | 105.8 |  |  |  |
| C/C1=C\CC[C@@]2(C)O[C@H]2[C@H]2OC(=O)[C@@H](CNC(C)(C)C(=O)OCc3ccccc3)[C@@H]2CC1 [JD212, Benzyl 2-((((3R,3aS,10bS,E)-6,9a-dimethyl-2-oxo-2,3,3a,4,5,8,9,9a,10a,10b-decahydrooxir-eno[2′,3′:9,10]cyclodeca[1,2-b]furan-3-yl)methyl)amino)-2-methylpropanoate] | 103.4 | 100.8 |  |  |  |
| C/C1=C\CC[C@@]2(C)O[C@H]2[C@H]2OC(=O)[C@@H](CN(C)CC(=O)OCc3ccccc3)[C@@H]2CC1 [JD213, Benzyl N-(((3R,3aS,10bS,E)-6,9a-dimethyl-2-oxo-2,3,3a,4,5,8,9,9a,10a,10b-decahydrooxire-no[2′,3′:9,10]cyclodeca[1,2-b]furan-3-yl)methyl)-N-methylglycinate] | 26.7 | 0.4 |  | greater than that observed with dimethylamino-parthenolide (DMAPT) |  |
| C/C1=C\CC[C@@]2(C)O[C@H]2[C@H]2OC(=O)[C@@H](CN(C)CC(=O)O)[C@@H]2CC1 [JD214, N-(((3R,3aS,10bS,E)-6,9a-Dimethyl-2-oxo-2,3,3a,4,5,8,9,9a,10a,10b-decahydrooxire-no[2′,3′:9,10]cyclodeca[1,2-b]furan-3-yl)methyl)-N-methylglycine] | 40.0 | 16.6 |  | greater than that observed with dimethylamino-parthenolide (DMAPT) |  |
| C/C1=C\CC[C@@]2(C)O[C@H]2[C@H]2OC(=O)[C@@H](CNC(C)(C)C(=O)O)[C@@H]2CC1 [JD215, 2-((((3R,3aS,10bS,E)-6,9a-Dimethyl-2-oxo-2,3,3a,4,5,8,9,9a,10a,10b-decahydrooxire-no[2′,3′:9,10]cyclodeca[1,2-b]furan-3-yl)methyl)amino)-2-methylpropanoic acid] | 59.5 | 0 |  | greater than that observed with dimethylamino-parthenolide (DMAPT) |  |
